{
  "source": "paper PMC5434554",
  "about": "“Structural similarities and functional differences clarify evolutionary relationships between tRNA healing enzymes and the myelin enzyme CNPase” (BMC Biochemistry, 2017)",
  "experiment_in_all_cases": "thermal shift assay, SYPRO Orange",
  "format_in_all_cases": "binding",
  "key": {"ScTrl1 CPDase": {"target": "T1, ScTrl1 CPDase (Saccharomyces cerevisiae, UniProt P09880)", "T1 construct": "gene TRL1; not the N+ or N- variants; N-terminal His6-3C tag cleaved; E. coli Rosetta(DE3); monomer", "T1 sequence (P09880 561-827 limits assumed)": "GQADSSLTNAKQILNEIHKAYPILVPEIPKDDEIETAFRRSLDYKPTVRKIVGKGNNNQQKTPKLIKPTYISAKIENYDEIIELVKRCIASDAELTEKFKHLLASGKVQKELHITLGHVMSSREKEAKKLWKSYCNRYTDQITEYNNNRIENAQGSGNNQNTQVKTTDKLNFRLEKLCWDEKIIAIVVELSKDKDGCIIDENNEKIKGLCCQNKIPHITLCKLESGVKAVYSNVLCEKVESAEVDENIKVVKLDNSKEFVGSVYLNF", "conditions": "1000 µM; 50 mM HEPES pH 7.5, 150 mM NaCl, 1 mM ligand; ligand-free reference in the 1st table, row 6", "source_text": "thermal shift assay, SYPRO Orange on ScTrl1 CPDase"}, "BfPNK/CPDase": {"target": "T2, BfPNK/CPDase (Branchiostoma floridae, UniProt A0A9J7HK91)", "T2 construct": "gene LOC118405679; full length; N-terminal His6-3C tag cleaved; from E. coli Rosetta(DE3); monomer under reducing conditions", "T2 sequence (A0A9J7HK91 entry or part of it)": "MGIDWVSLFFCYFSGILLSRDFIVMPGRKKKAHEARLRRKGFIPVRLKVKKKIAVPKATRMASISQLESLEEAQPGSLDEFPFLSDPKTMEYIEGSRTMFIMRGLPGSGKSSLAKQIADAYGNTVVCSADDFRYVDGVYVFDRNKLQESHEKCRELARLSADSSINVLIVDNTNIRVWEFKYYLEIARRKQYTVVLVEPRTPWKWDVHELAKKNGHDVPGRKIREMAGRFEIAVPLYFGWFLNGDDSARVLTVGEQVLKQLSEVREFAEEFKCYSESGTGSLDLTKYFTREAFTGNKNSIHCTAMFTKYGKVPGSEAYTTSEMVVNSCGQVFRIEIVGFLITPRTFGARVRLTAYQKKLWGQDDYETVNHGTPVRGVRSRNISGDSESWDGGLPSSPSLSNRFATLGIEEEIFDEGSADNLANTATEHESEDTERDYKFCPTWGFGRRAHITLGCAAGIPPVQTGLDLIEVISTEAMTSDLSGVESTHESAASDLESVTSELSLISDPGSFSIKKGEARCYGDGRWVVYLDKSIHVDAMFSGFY", "conditions": "1000 µM; 50 mM HEPES pH 7.5, 150 mM NaCl, 1 mM ligand; ligand-free reference in the 1st table, row 9", "source_text": "thermal shift assay, SYPRO Orange on BfPNK/CPDase"}, "ScTrl1 PNK/CPDase": {"target": "T3, ScTrl1 PNK/CPDase (Saccharomyces cerevisiae, UniProt P09880)", "T3 construct": "gene TRL1; PNK + CPDase domains of Trl1 (C-terminal part, ligase domain absent); N-terminal His6-3C tag cleaved; E. coli Rosetta(DE3); monomer", "T3 sequence (P09880 389-827 limits assumed)": "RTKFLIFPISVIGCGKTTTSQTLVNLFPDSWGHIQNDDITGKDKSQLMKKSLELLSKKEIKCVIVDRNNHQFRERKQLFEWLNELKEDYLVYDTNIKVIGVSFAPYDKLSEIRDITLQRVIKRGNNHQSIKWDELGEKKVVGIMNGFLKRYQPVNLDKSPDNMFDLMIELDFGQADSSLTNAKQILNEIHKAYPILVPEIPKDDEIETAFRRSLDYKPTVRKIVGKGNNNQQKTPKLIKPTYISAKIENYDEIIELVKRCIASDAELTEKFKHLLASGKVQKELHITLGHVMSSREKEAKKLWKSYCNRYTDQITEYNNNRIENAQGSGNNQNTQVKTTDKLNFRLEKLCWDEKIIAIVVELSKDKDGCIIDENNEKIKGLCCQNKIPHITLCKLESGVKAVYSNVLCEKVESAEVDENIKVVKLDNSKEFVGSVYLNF", "conditions": "1000 µM; 50 mM HEPES pH 7.5, 150 mM NaCl, 1 mM ligand; ligand-free reference in the 1st table, row 3", "source_text": "thermal shift assay, SYPRO Orange on ScTrl1 PNK/CPDase"}},
  "data": [
    {"compound": "NC(=O)c1ccc[n+]([C@@H]2O[C@H](COP(=O)(O)OP(=O)(O)OC[C@H]3O[C@@H](n4cnc5c(N)ncnc54)[C@@H]4OP(=O)(O)O[C@@H]43)[C@@H](O)[C@H]2O)c1", "note": "[2′,3′-cNADP^+]", "values": [
      {"measurement": "Tm (°C)", "setting": "ScTrl1 CPDase", "result": 72, "unit": "°C"},
      {"measurement": "Tm (°C)", "setting": "BfPNK/CPDase", "result": 48, "unit": "°C"},
      {"measurement": "Tm (°C)", "setting": "ScTrl1 PNK/CPDase", "result": 63, "unit": "°C"}
    ]}
  ]
}
